One experiment relates to HL60 (leukemia). Kind of experiment: In vitro cytotoxic activity assay (MTT), HL60. Format: cell-based. Particulars: Homo sapiens, HL-60; HL60 (leukemia) cells, exposed for 96 hours; read-out: IC50, concentration of compound eliciting a 50% inhibition of cell proliferation. As to the method:
(§1) Compounds 1-16 were screened for their in vitro cytotoxic activity utilizing a 3-(4,5-dimethyl-thiazol-2-yl)-2,5-diphenyltetrazolium bromide (MTT) assay against selected cancer human cell lines consisting of PC3 (prostate), HCT116 (colon), A375 (melanoma), H1299 (lung), MIAPaCa-2 (pancreas), HL60 (leukemia), MCF7 (breast), MDA-MB-231 (breast) (T. Mosmann, J. Immunol. Meth., 1983, 65, 55-63). The cells were cultured at 37° C. in RMPI1640 medium supplemented with 10% fetal bovine serum, 50 IU/mL penicillin, and 50 μg/mL streptomycin in a 5% CO2 incubator. All cells were sub-cultured 3 times/week by trypsinisation. Viable cells were seeded and allowed to adhere for 12 h before a test drug was added in 96-well plates at an initial density of 1.0×10^5 cells/mL. Tumour cell lines were separately exposed to various concentrations of the tested compounds followed by incubation at a temperature of 37° C. during 96 h inside a medium of fresh RMPI 1640. Cells were subsequently incubated at 37° C. using MTT at 0.5 mg/mL during 4 h. After removal of supernatant, formazan crystals were dissolved in isopropanol and the optical density was measured at 570 nm. CX-4945 was used as a positive control.

For a further experiment, the system named is HCT116 (colon). Kind of experiment: In vitro cytotoxic activity assay (MTT), HCT116. In kind it is cell-based. Conditions: Homo sapiens, HCT-116; HCT116 (colon) cells, exposed for 96 hours; read-out: IC50, concentration of compound eliciting a 50% inhibition of cell proliferation. As to the method:
as §1

For the next experiment, the system named is MDA-MB-231 (breast). Kind of experiment: In vitro cytotoxic activity assay (MTT), MDA-MB-231. In kind it is cell-based. Conditions: Homo sapiens; MDA-MB-231 (breast) cells, exposed for 96 hours; read-out: IC50, concentration of compound eliciting a 50% inhibition of cell proliferation. As to the method:
as §1

Another experiment deals with T1, recombinant human CK2 (Homo sapiens, UniProt P68400).
T1 construct: purchased Millipore
T1 sequence (P68400 whole entry): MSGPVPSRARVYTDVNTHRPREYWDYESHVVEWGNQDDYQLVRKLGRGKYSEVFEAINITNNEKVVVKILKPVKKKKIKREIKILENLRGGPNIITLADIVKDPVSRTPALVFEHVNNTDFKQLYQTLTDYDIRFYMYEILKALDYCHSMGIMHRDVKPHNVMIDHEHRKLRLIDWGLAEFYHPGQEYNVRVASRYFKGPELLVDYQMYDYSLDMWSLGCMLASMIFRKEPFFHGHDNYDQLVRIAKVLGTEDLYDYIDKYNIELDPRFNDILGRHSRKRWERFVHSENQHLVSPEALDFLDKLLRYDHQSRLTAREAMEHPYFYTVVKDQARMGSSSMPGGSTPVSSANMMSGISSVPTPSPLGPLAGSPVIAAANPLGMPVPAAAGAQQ
T1 sequence (P67870 whole entry partner): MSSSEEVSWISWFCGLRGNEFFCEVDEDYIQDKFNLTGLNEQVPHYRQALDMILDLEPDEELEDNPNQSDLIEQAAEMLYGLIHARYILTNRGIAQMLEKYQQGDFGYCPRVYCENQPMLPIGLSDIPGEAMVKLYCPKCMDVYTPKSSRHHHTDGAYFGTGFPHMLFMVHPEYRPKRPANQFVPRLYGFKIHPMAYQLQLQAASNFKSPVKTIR
The experiment can be described thus: CK2 Kinase Assay (radiometric, [γ-33P]ATP). In kind it is biochemical. Particulars: final ATP concentration 15 μM, 10 min at 30° C.; read-out: protein kinase CK2 activity IC50. As to the method: CK2 Kinase Assay was conducted using the protocol as described in Pierre F. et al; J. Med. Chem. 2011, 54, 635-654. The tested compounds in aqueous solution were added at a volume of 10 μL to a reaction mixture comprising 10 μL of assay dilution buffer (ADB; 20 mM MOPS, pH 7.2, 25 mM β-glycerol phosphate, 5 mM EGTA, 1 mM sodium orthovanadate, and 1 mM dithiothreitol), 10 μL of substrate peptide (RRRDDDSDDD, dissolved in ADB at a concentration of 1 mM), 10 μL of recombinant human CK2 (RROP-holoenzyme, 25 ng dissolved in ADB; Millipore). Reactions were initiated by the addition of 10 μL of ATP solution (90% 75 mMMgCl2, 75 μM ATP (final ATP concentration:15 μM) dissolved in ADB; 10% [γ-33P] ATP (stock 1mCi/100 L; 3000 Ci/mmol (Perkin-Elmer) and maintained for 10 min at 30° C. The reactions were quenched with 100 μL of 0.75% phosphoric acid and then transferred to and filtered through a phosphor cellulose filter plate (Millipore). After washing each well five times with 0.75% phosphoric acid, the plate was dried under vacuum for 5 min and, following the addition of 15 μL of scintillation fluid to each well, the residual radioactivity was measured using a Wallac luminescence counter. The IC50 values were derived from eight concentrations of test inhibitors.

For a further experiment, the system named is PC3 (prostate). The experiment can be described thus: In vitro cytotoxic activity assay (MTT), PC3. Format: cell-based. Particulars: Homo sapiens, Prostate cell; PC3 (prostate) cells, exposed for 96 hours; read-out: IC50, concentration of compound eliciting a 50% inhibition of cell proliferation. As to the method: as §1
The test system of another experiment is MIAPaCa-2 (pancreas). Kind of experiment: In vitro cytotoxic activity assay (MTT), MIAPaCa-2. In kind it is cell-based. Particulars: Homo sapiens, MIA PaCa-2; MIAPaCa-2 (pancreas) cells, exposed for 96 hours; read-out: IC50, concentration of compound eliciting a 50% inhibition of cell proliferation. As to the method: as §1
In the next experiment the test system is A375 (melanoma). The experiment can be described thus: In vitro cytotoxic activity assay (MTT), A375. Format: cell-based. Conditions: Homo sapiens, A-375; A375 (melanoma) cells, exposed for 96 hours; read-out: IC50, concentration of compound eliciting a 50% inhibition of cell proliferation. As to the method: as §1
The next experiment concerns MCF7 (breast). The experiment can be described thus: In vitro cytotoxic activity assay (MTT), MCF7. Conditions: Homo sapiens; MCF7 (breast) cells, exposed for 96 hours; read-out: IC50, concentration of compound eliciting a 50% inhibition of cell proliferation. In kind it is cell-based. As to the method: as §1
The test system of the next experiment is H1299 (lung). The experiment can be described thus: In vitro cytotoxic activity assay (MTT), H1299. Particulars: Homo sapiens, NCI-H1299; H1299 (lung) cells, exposed for 96 hours; read-out: IC50, concentration of compound eliciting a 50% inhibition of cell proliferation. In kind it is cell-based. As to the method: as §1

Results on one compound are retold here after patent publication US11884668B1, “Substituted pyrido[3′,4′:4,5]pyrrolo[2,3-c]quinolines as CK2 inhibitors” (KING FAISAL UNIVERSITY, priority 2023, dated 2024).

Regarding `O=C(O)c1ccc2c(c1)nc(Nc1cccc(Cl)c1)c1[nH]c3ccncc3c12` [Compound 1, 6-((3-chlorophenyl)amino)-7H-pyrido[3′,4′:4,5]pyrrolo[2,3-c]quinoline-3-carboxylic acid], the IC50 with HL60 (leukemia) amounted to 2800 nM; in the experiment on HCT116 (colon), 1500 nM; in the experiment on MDA-MB-231 (breast) it was 2500 nM; on recombinant human CK2, 175 nM; in the experiment on PC3 (prostate), 1100 nM; in the experiment with MIAPaCa-2 (pancreas) it was 1100 nM. For the same compound, the IC50 in the experiment on A375 (melanoma) amounted to 3300 nM; with MCF7 (breast) it was 4100 nM; with H1299 (lung) it was 1900 nM.
